Test results from patent US20260097047A1, “Small molecule inhibitors of the ribosome biogenesis factor NVL2” (Board of Regents, The University of Texas System, priority 2023, published 2026).
Like-named read-outs stand apart in the source and are kept apart here.

How the values were obtained:
HCT116 NVL^WT tumors = test: Efficacy study: HCT116 NVL wild type xenografts; format: in vivo, mouse; conditions: 35 mg/kg IP twice a day for 21 days
Procedure: Having established the kinetics of MM927 mediated NVL inhibition in xenograft tumors, we administered 35 mg/kg MM927 IP twice a day for 21 days to mice harboring tumors derived from either HCT116 NVL wild type or NVL^R403W cells. […] Taken together, we concluded that the potent, and bioavailable analog MM927 reduces tumor growth in mouse xenografts by inhibiting NVL without toxicity.
Efficacy study: Five million parental HCT116 cells or HCT116 NVL^R403W in a volume of 0.1 mL were implanted in the right flank. Tumor volumes were measured every 2 to 4 days with calipers. Volume is calculated as [(L*W^2)*3.14]/6. When volumes reached ˜110 mm^3, treatment was started with 35 mg/kg MM927 or vehicle control (0.2 mL/mouse) twice a day for 21 days. Mice were euthanized at the end of the 21-day treatment period or when any tumor reached 2 cm in its largest diameter, in agreement with the approved animal protocol. At the end of treatment, blood and tumor tissue were collected for pharmacokinetic analysis, measurement of complete blood counts, and blood chemistry measurements as described. Serum alanine transaminase and blood urea nitrogen were analyzed using VITROS MicroSlide technology.

HCT116 NVL^P307T cells = test: Cell viability in compound-resistant HCT116 NVL^P307T cells; format: cell-based, human; conditions: for IC50: Homo sapiens, HCT-116, NVL^P307T
Text: Assessing the ability of NVL2 inhibitors to selectively kill WT versus NVL2^mut HCT116, block ribosome biogenesis and induce p53. We evaluate analogs in the colorectal cancer cell line HCT116 and already available compound-resistant clones. One clone has a mutation in the compound binding site (NVL2^R403W) and another clone (NVL2^P307T) has a mutation distant from the binding site that confers resistance through an unknown effect. Based on our results, analogs that kill HCT116 cells via NVL2 inhibition (on-target) have reduced potency in compound-resistant HCT116 mutant clones. Our analogs have been counter-screened against the NVL2 compound-resistant mutant clones with fold resistance range between 10-100 fold (most analogs 20-50 fold). This counter screen provides a strategy for identifying off-target toxins.
From whole exome sequencing, we identified variants that were acquired during IAA-induced mutagenesis with the hypothesis that genes related to resistance will be mutated in multiple clones. Two genes contained acquired variants in at least 3 of the 15 selected clones: TERT, mutated in 3 of 15 clones, and NVL, mutated in all 15 clones. […] In sum, 57 out of 59 unique clones harbored NVL mutations. The majority of mutations clustered within the D1 AAA+ ATPase domain and frequently affecting the same codons. To test whether these mutations are sufficient for MM017 resistance, we used CRISPR-Cas9 to knock-in two of the most resistant mutations (NVL^P307T, NVL^R403W) and a mutation with intermediate resistance (NVL^H304R). Transfection of cells with sgRNAs targeting these NVL residues in addition to a mutation-encoding repair template yielded an increased rate of resistance when compared to mock treatments.
HCT116 cells were transfected with TransIT-LT (Mirus #MIR2304) according to manufacturer's protocol with a guide RNA (either mock or NVL targeting) in the px330 vector (Addgene, #42230), and 10 nM single stranded deoxyoligonucleotide encoding a specific NVL mutation (see below for specific sequences). 72 hours after transfection, cells were selected by MM017 treatment. The resulting cells were evaluated by cresyl violet staining or collected and the relevant NVL mutations were analyzed by either amplicon or sanger sequencing.
Cell viability assay: In 96-well assay plates (Corning #2903), 2,000 cells were plated per well in 100 μL of medium and allowed to adhere overnight. The next day, compounds suspended in DMSO were dispensed to the assayed wells using a D300e Digital Dispenser (Tecan). All wells were normalized to 0.5% DMSO. 72 hours after incubation at 37° C. in 5% CO2, cell viability was assayed using an ATP-based luminescent viability assay, CellTiter-Glo (Promega #G8462). Substrate was mixed 1:1 with phosphate-buffered saline (PBS) supplemented with 1% Triton X-100, and 40 μL of this mixture was added to the assay wells. Plates were shaken on a microplate shaker for 10 minutes at room temperature. Luminescence (CellTiter-Glo) was recorded using a Synergy 2 microplate reader (BioTek). In Prism 9 software (GraphPad), ten-point dose response curves were plotted with baseline-correction to the vehicle control well, and IC50 values were calculated by curve fitting using asymmetric (five parameter), least squares fit.

HCT116 cells = test: Cell viability assay (CellTiter-Glo, 72 hours) in HCT116 human colorectal cancer cells; format: cell-based; conditions: for IC50: Homo sapiens, HCT-116
In short: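 Ten-point IC50 came from an asymmetric five-parameter fit of luminescence corrected to vehicle wells. ATP content was measured by CellTiter-Glo 72 h after dosing at 37 °C. Cells were seeded at 2,000/well the day before, with 0.5% DMSO in all wells.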

HCT116 NVL^R403W cells = test: Cell viability counter-screen in compound-resistant HCT116 NVL^R403W cells; format: cell-based, human; conditions: Homo sapiens, HCT-116; NVL^R403W knock-in
Procedure: Design and synthesis of benzothiazepine-based NVL inhibitors. […] Analogs were evaluated against the colorectal cancer cell line HCT116, and counter-screened against a compound resistant NVL2^R403W clone. Cytotoxicity in wild-type HCT116 was determined. […] Initial SAR focused on exploring the replacement of the furan ring of initial dibenzothiazepinone hit MM017. We first explored a wide variety of mono- and di-substituted phenyl rings, including a broad spectrum of functionality (F, Cl, alkyl, alkoxy, fluoroalkoxy, CN, formamide, S(O) Me, carboxyl, . . . ). […]
HCT116 cells were transfected with TransIT-LT (Mirus #MIR2304) according to manufacturer's protocol with a guide RNA (either mock or NVL targeting) in the px330 vector (Addgene, #42230), and 10 nM single stranded deoxyoligonucleotide encoding a specific NVL mutation (see below for specific sequences). […] The resulting cells were evaluated by cresyl violet staining or collected and the relevant NVL mutations were analyzed by either amplicon or sanger sequencing.
Cell viability assay: In 96-well assay plates (Corning #2903), 2,000 cells were plated per well in 100 μL of medium and allowed to adhere overnight. […] Luminescence (CellTiter-Glo) was recorded using a Synergy 2 microplate reader (BioTek). […]

[1] = tested on: HCT116 control and p53 KO cells; test: Cell death by loss in membrane permeability, HCT116 control and p53 KO cells; format: cell-based, human; conditions: five-day treatment

Row | SMILES | endpoint tumor burden, NVL WT (HCT116 NVL^WT tumors) | rate of growth of NVL^WT tumors (HCT116 NVL^WT tumors) | resistance of NVL^P307T cells (HCT116 NVL^P307T cells) | IC50 (HCT116 NVL^P307T cells) [nM] | potency relative to parent compound MM017 (HCT116 cells; HCT116 proliferation) | IC50 (HCT116 cells; read-out: IC50, HCT116 proliferation) [nM] | IC50 (HCT116 NVL^R403W cells) [nM] | cell death in p53 KO versus control cells [1] | IC50 (HCT116 cells; NVL^WT, read-out: IC50) [nM]
1 | CC#CCN1C(=O)c2ccc(F)cc2Sc2cc(NC(=O)c3ccc4oc(=O)n(C)c4c3)ccc21 [MM927, N-(10-(But-2-yn-1-yl)-3-fluoro-11-oxo-10,11-dihydrodibenzo[b,f][1,4]thiazepin-7-yl)-3-methyl-2-oxo-2,3-dihydrobenzo[d]oxazole-5-carboxamide] | significantly reduced NVL WT tumor burden | significantly reduced the rate of growth | relatively resistant | 1670 | five times more potent | 79 |  |  | 
2 | COCCN1C(=O)c2ccccc2Sc2cc(NC(=O)c3ccoc3)ccc21 [MM017] |  |  | comparatively resistant | > 50000 |  |  | > 50000 | substantially lower in p53 KO cells | 380
